The target of the test is Ubiquitin-conjugating enzyme E2 E1 (Homo sapiens, UniProt P51965). Nature of the test: HTRF Assay : The UAE enzymatic reaction totals 50 μL and contains 50 mmol HEPES (pH 7.5), 0.05% BSA, 2.5 mM MgCl2, 0.1 uM ATP, 8 nM GST-Ubc-2, 35 nM flag-ubiquitin, 1 nM recombinant human UAE or mouse UAE. Compounds for this hUAE 1050 assay are tested at 10 point 3-fold dilution. The top concentration for this assay is 1 μM. Each compound is ordered in duplicate on the same plate.

The text below walks through data of ChEMBL document CHEMBL5726263, “Pyrazolopyrimidinyl inhibitors of ubiquitin-activating enzyme” (2017).

Each structure is given as a SMILES string.

Chain of Ubiquitin-conjugating enzyme E2 E1 (P51965 whole entry): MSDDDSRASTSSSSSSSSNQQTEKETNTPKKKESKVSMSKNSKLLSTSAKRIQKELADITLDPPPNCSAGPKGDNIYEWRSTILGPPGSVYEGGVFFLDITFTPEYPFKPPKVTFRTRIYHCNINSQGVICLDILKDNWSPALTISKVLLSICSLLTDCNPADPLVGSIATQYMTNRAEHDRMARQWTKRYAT

The term IC50 denotes the point on the concentration scale where inhibition reaches its midpoint. Take `NS(=O)(=O)OC[C@H]1C[C@@H](Nc2ccnc3cc(-c4cccc5ccccc45)nn23)[C@H](O)[C@@H]1O` (racemic): the IC50 was under 10 nM.
